Data: ChEMBL document CHEMBL4017476, “Synthesis of novel 5,6-dehydrokawain analogs as osteogenic inducers and their action mechanisms” (Bioorg Med Chem Lett, 2017)
Values belong to the molecule of their own block, whether it stands above or below them. Active and inactive are the calls of the source. No cut-off for these calls is given here.

How the values were obtained:
[1] = system: MC3T3-E1; assay: Osteogenic activity in mouse MC3T3-E1 cells assessed as increase in ALP activity at 30 uM measured after 4 days relative to control; format: functional
[2] = system: MC3T3-E1; assay: Osteogenic activity in mouse MC3T3-E1 cells assessed as increase in mineralization at 30 uM measured after 10 days by alizarin red S staining based assay; format: functional, cell-based
[3] = system: MC3T3-E1; assay: Cytotoxicity against mouse MC3T3-E1 cells assessed as cell number at 30 uM measured after 4 days by WST-8 assay relative to control; format: cell-based; conditions: mc3t3-e1, 96 h
[4] = system: MC3T3-E1; assay: Osteogenic activity in mouse MC3T3-E1 cells assessed as increase in ALP activity at 10 uM measured after 4 days relative to control; format: functional, cell-based
[5] = system: MC3T3-E1; assay: Osteogenic activity in mouse MC3T3-E1 cells assessed as increase in mineralization at 10 uM measured after 10 days by alizarin red S staining based assay; format: functional, cell-based
[6] = system: MC3T3-E1; assay: Osteogenic activity in mouse MC3T3-E1 cells assessed as increase in mineralization at 0.1 to 60 uM measured after 10 days by alizarin red S staining based assay; format: functional, cell-based
[7] = system: MC3T3-E1; assay: Osteogenic activity in mouse MC3T3-E1 cells assessed as increase in mineralization at 30 uM measured after 10 days in presence of BMP2 inhibitor noggin by alizarin red S staining based assay; format: functional, cell-based
[8] = system: MC3T3-E1; assay: Osteogenic activity in mouse MC3T3-E1 cells assessed as increase in mineralization at 30 uM measured after 10 days in presence of type-1 BMP receptor kinase inhibitor LDN-193189 by alizarin red S staining based assay; format: functional, cell-based
[9] = system: RAW264; assay: Inhibition of RANKL-stimulated osteoclastogenesis in mouse RAW264 cells assessed as reduction in TRAP activity at 20 uM measured after 72 hrs by microscopic analysis; format: functional, cell-based
[10] = species: Mus musculus; assay: Activation of BMP signaling pathway in mouse MC3T3-E1 cells assessed as increase in Runx2 mRNA expression after 2 days by SYBR green-dye based RT-PCR method; format: cell-based
[11] = species: Mus musculus; assay: Activation of BMP signaling pathway in mouse MC3T3-E1 cells assessed as increase in Osterix mRNA expression after 2 days by SYBR green-dye based RT-PCR method; format: cell-based
[12] = species: Mus musculus; assay: Activation of BMP signaling pathway in mouse MC3T3-E1 cells assessed as increase in Alpl mRNA expression after 2 days by SYBR green-dye based RT-PCR method; format: cell-based
[13] = species: Mus musculus; assay: Activation of BMP signaling pathway in mouse MC3T3-E1 cells assessed as increase in Bglap mRNA expression after 2 days by SYBR green-dye based RT-PCR method; format: cell-based
[14] = species: Mus musculus; assay: Activation of BMP signaling pathway in mouse MC3T3-E1 cells assessed as increase in Runx2 mRNA expression at 10 uM after 2 days by SYBR green-dye based RT-PCR method relative to control; format: cell-based
[15] = species: Mus musculus; assay: Activation of BMP signaling pathway in mouse MC3T3-E1 cells assessed as increase in Osterix mRNA expression at 10 uM after 2 days by SYBR green-dye based RT-PCR method relative to control; format: cell-based
[16] = species: Mus musculus; assay: Activation of BMP signaling pathway in mouse MC3T3-E1 cells assessed as increase in Alpl mRNA expression at 10 uM after 2 days by SYBR green-dye based RT-PCR method relative to control; format: cell-based
[17] = species: Mus musculus; assay: Activation of BMP signaling pathway in mouse MC3T3-E1 cells assessed as increase in Bglap mRNA expression at 10 uM after 2 days by SYBR green-dye based RT-PCR method relative to control; format: cell-based
[18] = molecular target: T1, MAP kinase p38 (Mus musculus) (UniProt P47811+O08911+Q9WUI1+Q9Z1B7); assay: Induction of p38 MAPK phosphorylation in mouse MC3T3-E1 cells assessed as ratio of phosphorylated p38 to unphosphorylated p38 protein level at 30 uM measured after 5 mins by Western blot analysis relative to control; format: cell-based
[19] = molecular target: T2, SMAD1/5/9 (Mus musculus) (UniProt P70340+P97454+Q9JIW5); assay: Induction of Smad1/5/8 phosphorylation in mouse MC3T3-E1 cells assessed as ratio of phosphorylated Smad1/5/8 to actin beta protein level at 30 uM measured after 5 mins by Western blot analysis relative to control; format: cell-based
[20] = system: MC3T3-E1; assay: Osteogenic activity in mouse MC3T3-E1 cells assessed as increase in mineralization at 30 uM measured after 10 days in presence of p38 MAPK inhibitor SB203580 by alizarin red S staining based assay; format: functional, cell-based
[21] = system: RAW264; assay: Inhibition of RANKL-stimulated osteoclastogenesis in mouse RAW264 cells assessed as reduction in TRAP-positive multinucleated cells at 20 uM measured after 72 hrs by TRAP staining based microscopic analysis; format: functional, cell-based
[22] = molecular target: T1, MAP kinase p38 (Mus musculus); assay: Induction of p38 MAPK phosphorylation in mouse MC3T3-E1 cells assessed as ratio of phosphorylated p38 to unphosphorylated p38 protein level at 30 uM measured after 15 mins by Western blot analysis relative to control; format: cell-based
[23] = molecular target: T1, MAP kinase p38 (Mus musculus); assay: Induction of p38 MAPK phosphorylation in mouse MC3T3-E1 cells assessed as ratio of phosphorylated p38 to unphosphorylated p38 protein level at 30 uM measured after 30 mins by Western blot analysis relative to control; format: cell-based
[24] = molecular target: T2, SMAD1/5/9 (Mus musculus); assay: Induction of Smad1/5/8 phosphorylation in mouse MC3T3-E1 cells assessed as ratio of phosphorylated Smad1/5/8 to actin beta protein level at 30 uM measured after 15 mins by Western blot analysis relative to control; format: cell-based
[25] = molecular target: T2, SMAD1/5/9 (Mus musculus); assay: Induction of Smad1/5/8 phosphorylation in mouse MC3T3-E1 cells assessed as ratio of phosphorylated Smad1/5/8 to actin beta protein level at 30 uM measured after 30 mins by Western blot analysis relative to control; format: cell-based
[26] = system: MC3T3-E1; assay: Osteogenic activity in mouse MC3T3-E1 cells assessed as increase in ALP activity at 60 uM measured after 4 days relative to control; format: functional
[27] = system: MC3T3-E1; assay: Osteogenic activity in mouse MC3T3-E1 cells assessed as increase in mineralization at 60 uM measured after 10 days by alizarin red S staining based assay; format: functional, cell-based
[28] = system: MC3T3-E1; assay: Cytotoxicity against mouse MC3T3-E1 cells assessed as cell number at 60 uM measured after 4 days by WST-8 assay relative to control; format: cell-based; conditions: mc3t3-e1, 96 h

Compound: COc1cc(/C=C/c2ccccc2C)oc(=O)c1
Activity [1]: Active | Activity [2]: Active | fold change (FC) [3]: 0.85 to 1.25

Compound: COc1cc(/C=C/C2CCCC2)oc(=O)c1
Activity [1]: inactive | Activity [2]: inactive | fold change (FC) [3]: 0.85 to 1.25

Compound: COc1cc(/C=C/c2ccc(C(C)(C)C)cc2)oc(=O)c1
Activity [4]: Active | Activity [5]: Active | fold change (FC) [3]: 0.85 to 1.25

Compound: COc1cc(/C=C/c2ccc(C)cc2)oc(=O)c1
Activity [1]: Active | Activity [2]: Active | fold change (FC) [3]: 0.85 to 1.25

Compound: COc1ccc(/C=C/c2cc(OC)cc(=O)o2)cc1 [YANGONIN]
Activity [1]: inactive | Activity [2]: inactive | fold change (FC) [3]: 0.85 to 1.25

Compound: C#Cc1ccc(/C=C/c2cc(OC)cc(=O)o2)cc1
fold change (FC) [1]: 1.32 - 2.87 | Activity [2]: Active | fold change (FC) [3]: 0.85 to 1.25

Compound: COc1cc(/C=C/c2ccsc2)oc(=O)c1
Activity [1]: inactive | Activity [2]: inactive | fold change (FC) [3]: 0.85 to 1.25

Compound: COc1cc(/C=C/C2CCCCC2)oc(=O)c1
fold change (FC) [1]: 1.32 - 2.87 | Activity [2]: Active | fold change (FC) [3]: 0.85 to 1.25

Compound: COc1cc(/C=C/C2CC2)oc(=O)c1
Activity [1]: inactive | Activity [2]: inactive | fold change (FC) [3]: 0.85 to 1.25

Compound: CCc1cccc(/C=C/c2cc(OC)cc(=O)o2)c1
Activity [1]: Active | Activity [2]: Active | fold change (FC) [3]: 0.85 to 1.25

Compound: CCOc1ccc(/C=C/c2cc(OC)cc(=O)o2)cc1
fold change (FC) [1]: 1.32 - 2.87 | Activity [2]: Active | fold change (FC) [3]: 0.85 to 1.25

Compound: COc1cc(/C=C/c2cccc(C)c2)oc(=O)c1
Activity [1]: Active | Activity [2]: Active | fold change (FC) [3]: 0.85 to 1.25

Compound: COc1cc(/C=C/c2ccccc2)oc(=O)c1C
Activity [2]: inactive | Activity [6]: inactive | fold change (FC) [3]: 0.85 to 1.25

Ratio [18]: 1.6 | Ratio [19]: 1.1 | Ratio [22]: 1.5 | Ratio [23]: 1.1 | Ratio [24]: 1.1 | Ratio [25]: 1.1
Compound: CCCCc1ccc(/C=C/c2cc(OC)cc(=O)o2)cc1
Activity [7]: inactive | Activity [8]: inactive | inhibition [9]: Active | Activity [1]: Active | Activity [2]: Active | Activity [4]: Active | Activity [5]: Active | fold change (FC) [3]: 0.85 to 1.25 | Activity [10]: Dose-dependent effect | Activity [11]: Dose-dependent effect | Activity [12]: Dose-dependent effect | Activity [13]: Dose-dependent effect | fold change (FC) [14]: 1.42 | fold change (FC) [15]: 2.41 | fold change (FC) [16]: 2.09 | fold change (FC) [17]: 1.33 | Activity [20]: inactive | inhibition [21]: Active

Compound: CCCOc1cc(/C=C/c2ccccc2)oc(=O)c1
Activity [2]: inactive | Activity [6]: inactive

Compound: COc1cc(/C=C/c2ccc(Cl)cc2)oc(=O)c1
fold change (FC) [1]: 1.32 - 2.87 | Activity [2]: Active | fold change (FC) [3]: 0.85 to 1.25

Compound: COc1cc(/C=C/c2ccc(F)cc2)oc(=O)c1
Activity [1]: inactive | Activity [2]: inactive | fold change (FC) [3]: 0.85 to 1.25

Compound: CCCc1ccc(/C=C/c2cc(OC)cc(=O)o2)cc1
fold change (FC) [3]: 0.85 to 1.25

Compound: COc1cc(/C=C/c2ccc(C(F)(F)F)cc2)oc(=O)c1
fold change (FC) [1]: 1.32 - 2.87 | Activity [2]: Active | fold change (FC) [3]: 0.85 to 1.25

Compound: CCOc1cc(/C=C/c2ccccc2)oc(=O)c1
Activity [2]: inactive | Activity [6]: inactive | fold change (FC) [3]: 0.85 to 1.25

Compound: CCc1ccccc1/C=C/c1cc(OC)cc(=O)o1
Activity [1]: inactive | Activity [2]: inactive | fold change (FC) [3]: 0.85 to 1.25

Ratio [18]: 1.8 | Ratio [19]: 1.1 | Ratio [22]: 1.7 | Ratio [23]: 1.2 | Ratio [24]: 1 | Ratio [25]: 1
Compound: CCc1ccc(/C=C/c2cc(OC)cc(=O)o2)cc1
Activity [7]: inactive | Activity [8]: inactive | inhibition [9]: Active | fold change (FC) [1]: 1.32 - 2.87 | Activity [2]: Active | fold change (FC) [3]: 0.85 to 1.25 | Activity [10]: Dose-dependent effect | Activity [11]: Dose-dependent effect | Activity [12]: Dose-dependent effect | Activity [13]: Dose-dependent effect | fold change (FC) [14]: 1.5 | fold change (FC) [15]: 2.61 | fold change (FC) [16]: 2.23 | fold change (FC) [17]: 1.92 | Activity [20]: inactive | inhibition [21]: Active

Compound: CC(C)Oc1ccc2c(=O)c(-c3ccccc3)coc2c1
inhibition [9]: Active

Compound: COc1cc(/C=C/c2ccccc2)oc(=O)c1 [DESMETHOXYYANGONIN]
inhibition [9]: inactive | fold change (FC) [26]: 1.25 | Activity [27]: Active | Activity [6]: Active | fold change (FC) [3]: 0.85 to 1.25 | fold change (FC) [28]: 0.85 to 1.25
